Assay results published in ChEMBL document CHEMBL1154957, “Preparation and in vitro screening of symmetrical bispyridinium cholinesterase inhibitors bearing different connecting linkage-initial study for Myasthenia gravis implications” (Bioorg Med Chem Lett, 2010).
Active and inactive are the calls of the source. No cut-off for these calls is given here.

Assays:
Acetylcholinesterase [1] = target: T1, Acetylcholinesterase (Homo sapiens, UniProt P22303); assay: Inhibition of human erythrocyte AChE after 5 mins by Ellman's method
Cholinesterase = Cholinesterase (Homo sapiens, UniProt P06276); assay: Inhibition of human plasma BChE after 5 mins by Ellman's method; format: cell-free
Acetylcholinesterase [2] = target: T1, Acetylcholinesterase; assay: Inhibition of human erythrocyte AChE after 5 mins by noncompetitive Lineweaver-Burke plot analysis for enzyme-inhibitor complex
Acetylcholinesterase [3] = target: T1, Acetylcholinesterase; assay: Inhibition of human erythrocyte AChE after 5 mins by noncompetitive Lineweaver-Burke plot analysis
Acetylcholinesterase [4] = target: T1, Acetylcholinesterase; assay: Inhibition of human erythrocyte AChE at 0.0000001 mM to 1 mM after 5 mins by Ellman's method

Sequence of Cholinesterase (P06276 whole entry): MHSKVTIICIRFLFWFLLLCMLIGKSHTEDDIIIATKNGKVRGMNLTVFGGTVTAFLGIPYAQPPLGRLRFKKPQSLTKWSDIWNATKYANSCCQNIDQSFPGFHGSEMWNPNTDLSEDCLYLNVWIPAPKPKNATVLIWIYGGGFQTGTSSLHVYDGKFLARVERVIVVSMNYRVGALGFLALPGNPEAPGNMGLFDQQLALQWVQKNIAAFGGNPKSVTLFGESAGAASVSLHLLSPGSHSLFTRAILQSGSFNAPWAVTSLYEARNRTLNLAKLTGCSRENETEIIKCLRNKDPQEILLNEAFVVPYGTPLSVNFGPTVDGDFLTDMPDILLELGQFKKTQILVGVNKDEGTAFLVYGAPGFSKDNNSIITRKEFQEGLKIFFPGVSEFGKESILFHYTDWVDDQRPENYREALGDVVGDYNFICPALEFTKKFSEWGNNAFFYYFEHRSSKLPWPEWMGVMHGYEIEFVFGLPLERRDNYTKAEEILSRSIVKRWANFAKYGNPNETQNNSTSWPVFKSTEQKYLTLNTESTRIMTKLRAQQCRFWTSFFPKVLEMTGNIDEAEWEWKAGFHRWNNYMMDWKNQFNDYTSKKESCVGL
T1 sequence (P22303 whole entry): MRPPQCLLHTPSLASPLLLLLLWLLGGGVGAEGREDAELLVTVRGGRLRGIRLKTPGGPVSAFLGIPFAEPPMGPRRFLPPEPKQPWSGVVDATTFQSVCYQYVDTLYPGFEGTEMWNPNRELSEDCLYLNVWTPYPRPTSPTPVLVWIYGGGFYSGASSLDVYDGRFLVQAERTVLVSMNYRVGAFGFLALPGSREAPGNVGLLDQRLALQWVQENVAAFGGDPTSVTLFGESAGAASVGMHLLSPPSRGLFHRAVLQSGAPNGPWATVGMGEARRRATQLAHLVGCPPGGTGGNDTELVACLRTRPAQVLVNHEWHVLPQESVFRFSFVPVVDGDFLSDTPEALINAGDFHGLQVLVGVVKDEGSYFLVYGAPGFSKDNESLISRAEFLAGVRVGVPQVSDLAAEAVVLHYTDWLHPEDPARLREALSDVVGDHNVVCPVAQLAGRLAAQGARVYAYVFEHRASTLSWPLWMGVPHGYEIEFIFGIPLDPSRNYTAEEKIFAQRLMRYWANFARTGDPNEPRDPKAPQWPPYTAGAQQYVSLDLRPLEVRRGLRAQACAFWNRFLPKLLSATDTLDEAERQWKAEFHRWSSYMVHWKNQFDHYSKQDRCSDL

SMILES | IC50 (Acetylcholinesterase [1]) [µM] | IC50 (Cholinesterase) [µM] | Ki (Acetylcholinesterase [2]) [µM] | Ki (Acetylcholinesterase [3]) [µM] | inhibition (Acetylcholinesterase [4])
C(=C/C[n+]1ccccc1)/C[n+]1ccccc1 | 1990 | 1270 |  |  | 
c1cc[n+](Cc2ccc(C[n+]3ccccc3)cc2)cc1 | 1540 | 529 |  |  | 
c1cc[n+](Cc2cccc(C[n+]3ccccc3)c2)cc1 | 2360 | 1380 |  |  | 
c1cc[n+](CCCC[n+]2ccccc2)cc1 | 505 | 9800 |  |  | 
c1cc[n+](CCCCCC[n+]2ccccc2)cc1 | 63 | 130 |  |  | 
c1cc[n+](CCCCCCCCCCC[n+]2ccccc2)cc1 | 0.7 | 7 | 0.02 | 0.03 | 
C(=C\C[n+]1ccccc1)/C[n+]1ccccc1 | 2290 | 541 |  |  | 
c1cc[n+](CCC[n+]2ccccc2)cc1 |  |  |  |  | inactive
c1cc[n+](Cc2ccccc2C[n+]2ccccc2)cc1 | 636 | 345 |  |  | 
c1cc[n+](CCCCC[n+]2ccccc2)cc1 | 1270 | 120 |  |  | 
c1cc[n+](Cc2ccc3ccc(C[n+]4ccccc4)cc3c2)cc1 | 0.2 | 0.8 | 0.14 | 0.14 | 
c1cc[n+](CCCCCCC[n+]2ccccc2)cc1 | 241 | 78 |  |  | 
c1cc[n+](CCCCCCCCCCCC[n+]2ccccc2)cc1 |  |  |  |  | inactive
c1cc[n+](CCCCCCCCC[n+]2ccccc2)cc1 | 2 | 6 |  |  | 
c1cc[n+](CCOCC[n+]2ccccc2)cc1 | 2010 | 2360 |  |  | 
c1cc[n+](CC[n+]2ccccc2)cc1 |  |  |  |  | inactive
c1cc[n+](CCCCCCCC[n+]2ccccc2)cc1 | 31 | 29 |  |  | 
c1cc[n+](COC[n+]2ccccc2)cc1 | 1770 | 583 |  |  | 
CN(C)C(=O)Oc1cccc([N+](C)(C)C)c1 [NEOSTIGMINE BROMIDE] |  | 0.8 |  |  | 
c1cc[n+](C[n+]2ccccc2)cc1 |  |  |  |  | inactive
